ChEMBL document CHEMBL3232817, “Structural elucidation and synthesis of vialinin C, a new inhibitor of TNF-α production” (Bioorg Med Chem, 2014)

Each compound was assayed on RBL-2H3 (assay: Inhibition of TNF-alpha production in rat RBL2H3 cells).
Assay type: functional, cell-based

In order of falling IC50:
1. O=C(Oc1c(-c2ccc(O)cc2)c(O)c2oc3cc(O)c(O)cc3c2c1OC(=O)c1ccc(O)cc1)c1ccc(O)cc1  890 nM
2. O=C(Oc1c(OC(=O)c2ccc(O)cc2)c(-c2ccc(O)cc2)c(O)c(O)c1-c1ccc(O)cc1)c1ccc(O)cc1  3.5 nM
3. O=C(Cc1ccccc1)Oc1c(OC(=O)Cc2ccccc2)c(-c2ccc(O)cc2)c(O)c(O)c1-c1ccc(O)cc1 [VIALININ A]  0.25 nM
4. O=C(Cc1ccccc1)Oc1c(-c2ccc(O)cc2)c(O)c2oc3cc(O)c(O)cc3c2c1OC(=O)Cc1ccccc1 [VIALININ B]  0.05 nM
